In brackets after ≈: the same amount, converted by molar mass. Positions of bridges follow the written chain, without caps; N, C: chain ends. Non-standard residues stand in square brackets, D forms with d. Residues, ends and D or L forms follow the SMILES beside them. *: point of attachment. Benzoyl(3-CF3) = O=C(c1cccc(C(F)(F)F)c1)*; Heptanoyl(6-Me) = CC(C)CCCCC(=O)*; Nonanoyl = CCCCCCCCC(=O)*; Octanoyl = CCCCCCCC(=O)*; X5 = Cc1cc(C(=O)*)ccc1Cl; Dab = NCC[C@H](N)C(=O)O; Abu = CC[C@H](N)C(=O)O; Dap = NC[C@H](N)C(=O)O
Columns and labels:
P. aeruginosa ATCC 27853 = experiment: In vivo efficacy in mouse blood infection model (neutropenic Swiss mice); conditions: compound, free base 4 mg/kg intravenously 2 h after inoculation, blood at 4 h
Outline: (§1)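 Neutropenic Swiss mice (cyclophosphamide 150 mg/kg day −4, 100 mg/kg day −1, i.p.) infected i.v. with early log-phase bacteria; 4 mg/kg free base i.v. given 2 h post-inoculation. Blood CFU by cardiac puncture 4 h post-dose; Δlog10 CFU/mL treated versus saline controls.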

A. baumannii ATCC 19606 = experiment: as above; conditions: compound, free base 4 mg/kg intravenously 2 h after inoculation, blood at 4 h
Outline: as §1

[1] = test system: K. pneumoniae FADDI-KP032; experiment: as above; conditions: compound, free base 4 mg/kg intravenously 2 h after inoculation, blood at 4 h
Outline: as §1

Pseudomonas aeruginosa = test system: Pseudomonas aeruginosa
Outline: (§2)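 Broth microdilution MICs following CLSI standards in cation-adjusted Mueller-Hinton broth. Lipopeptides tested as TFA salts; polymyxin B sulphate served as control.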

Enterobacter cloacae = test system: Enterobacter cloacae
Outline: as §2

Klebsiella pneumoniae = test system: Klebsiella pneumoniae
Outline: as §2

Acinetobacter baumannii = test system: Acinetobacter baumannii
Outline: as §2

| Structure (SMILES) | Δ log (Treated-Control at 4 h) (P. aeruginosa ATCC 27853) [log10 CFU/mL] | Δ log (Treated-Control at 4 h) (A. baumannii ATCC 19606) [log10 CFU/mL] | Δ log (Treated-Control at 4 h) [1] [log10 CFU/mL] | MIC (Pseudomonas aeruginosa) [µg/mL] | Minimum inhibitory concentration, Pa ATCC 27853 (Pseudomonas aeruginosa) [µg/mL] | Minimum inhibitory concentration, Pa FADDI-PA022 (Pseudomonas aeruginosa) [µg/mL] | Minimum inhibitory concentration, Pa FADDI-PA025 (Pseudomonas aeruginosa) [µg/mL] | Minimum inhibitory concentration, Ec FADDI-EC001 (Enterobacter cloacae) [µg/mL] | Minimum inhibitory concentration, Ec FADDI-EC003 (Enterobacter cloacae) [µg/mL] | Minimum inhibitory concentration, Ec FADDI-EC006 (Enterobacter cloacae) [µg/mL] | MIC (Klebsiella pneumoniae) [µg/mL] | MIC (Acinetobacter baumannii) [µg/mL] | Minimum inhibitory concentration, Ab A ATCC 17978 (Acinetobacter baumannii) [µg/mL] | Minimum inhibitory concentration, Ab ATCC 19606 (Acinetobacter baumannii) [µg/mL] | Minimum inhibitory concentration, Ab FADDI-AB034 (Acinetobacter baumannii) [µg/mL] | also measured |
| --- | --- | --- | --- | --- | --- | --- | --- | --- | --- | --- | --- | --- | --- | --- | --- | --- |
| CCCCCCCC(=O)N[C@@H](CCN)C(=O)N[C@H](C(=O)N[C@@H](CN)C(=O)N[C@H]1CCNC(=O)[C@H]([C@@H](C)O)NC(=O)[C@H](CCN)NC(=O)[C@H](CCN)NC(=O)[C@H](C)NC(=O)[C@@H](CC(C)C)NC(=O)[C@H](CCN)NC1=O)[C@@H](C)O [Compound 35] (Octanoyl-[Dab]T[Dap][Dab][Dab][dL]A[Dab][Dab]T; lactam 4-C) | −3.36 | −1.60 | −3.12 | 0.5 (≈ 0.455 µM) | 0.5 (≈ 0.455 µM) | 0.5 (≈ 0.455 µM) | 16 (≈ 14.6 µM) | <0.125 | 0.25 (≈ 0.227 µM) | <0.125 | <0.125 | 0.5 (≈ 0.455 µM) | 0.5 (≈ 0.455 µM) | 0.5 (≈ 0.455 µM) | 0.25 (≈ 0.227 µM) | – |
| CCCCCCCC(=O)N[C@@H](CCN)C(=O)N[C@H](C(=O)N[C@@H](CN)C(=O)N[C@H]1CCNC(=O)[C@H]([C@@H](C)O)NC(=O)[C@H](CCN)NC(=O)[C@H](CCN)NC(=O)[C@H](CC)NC(=O)[C@@H](CC(C)C)NC(=O)[C@H](CCN)NC1=O)[C@@H](C)O [Compound 46] (Octanoyl-[Dab]T[Dap][Dab][Dab][dL][Abu][Dab][Dab]T; lactam 4-C) | −2.53 | −1.56 | −2.93 | 0.5 (≈ 0.449 µM) | 0.5 (≈ 0.449 µM) | 0.5 (≈ 0.449 µM) | 2 (≈ 1.8 µM) | <0.125 | 0.25 (≈ 0.225 µM) | <0.125 | <0.125 | 0.25 (≈ 0.225 µM) | 0.25 (≈ 0.225 µM) | 0.25 (≈ 0.225 µM) | 0.25 (≈ 0.225 µM) | – |
| CCCCCCCC(=O)N[C@@H](CCN)C(=O)N[C@H](C(=O)N[C@@H](CCN)C(=O)N[C@H]1CCNC(=O)[C@H]([C@@H](C)O)NC(=O)[C@H](CCN)NC(=O)[C@H](CCN)NC(=O)[C@H](CO)NC(=O)[C@@H](CC(C)C)NC(=O)[C@H](CCN)NC1=O)[C@@H](C)O [Compound 25] (Octanoyl-[Dab]T[Dab][Dab][Dab][dL]S[Dab][Dab]T; lactam 4-C) | – | 0.27 | −2.65 | >32 | >32 | 0.5 (≈ 0.443 µM) | >32 | <0.125 | 0.25 (≈ 0.221 µM) | 0.5 (≈ 0.443 µM) | 0.25 (≈ 0.221 µM) | 8 (≈ 7.08 µM) | 4 (≈ 3.54 µM) | 8 (≈ 7.08 µM) | 4 (≈ 3.54 µM) | – |
| CC[C@@H]1NC(=O)[C@@H](CC(C)C)NC(=O)[C@H](CCN)NC(=O)[C@@H](NC(=O)[C@H](CN)NC(=O)[C@@H](NC(=O)[C@H](CCN)NC(=O)c2ccc(Cl)c(C)c2)[C@@H](C)O)CCNC(=O)[C@H]([C@@H](C)O)NC(=O)[C@H](CCN)NC(=O)[C@H](CCN)NC1=O [Compound 104] (X5-[Dab]T[Dap][Dab][Dab][dL][Abu][Dab][Dab]T; lactam 4-C) | −3.08 | −1.35 | −3.23 | 0.5 (≈ 0.439 µM) | 0.5 (≈ 0.439 µM) | 0.5 (≈ 0.439 µM) | 2 (≈ 1.75 µM) | 0.5 (≈ 0.439 µM) | 0.25 (≈ 0.219 µM) | 0.5 (≈ 0.439 µM) | 1 (≈ 0.877 µM) | 1 (≈ 0.877 µM) | 0.5 (≈ 0.439 µM) | 1 (≈ 0.877 µM) | 0.25 (≈ 0.219 µM) | – |
| CC(C)CCCCC(=O)N[C@@H](CCN)C(=O)N[C@H](C(=O)N[C@@H](CCN)C(=O)N[C@H]1CCNC(=O)[C@H]([C@@H](C)O)NC(=O)[C@H](CCN)NC(=O)[C@H](CCN)NC(=O)[C@H]([C@@H](C)O)NC(=O)[C@@H](CC(C)C)NC(=O)[C@H](CCN)NC1=O)[C@@H](C)O [Compound 153, polymyxin M2] ({Heptanoyl(6-Me)}-[Dab]T[Dab][Dab][Dab][dL]T[Dab][Dab]T; lactam 4-C) | −2.73 | −1.26 | −3.59 | 0.5 (≈ 0.437 µM) | – | – | – | – | – | – | 0.25 (≈ 0.219 µM) | 2 (≈ 1.75 µM) | – | – | – | Minimum inhibitory concentration (MIC), Pa ATCC 27853 (Pseudomonas aeruginosa): 0.5 µg/mL (≈ 0.437 µM); Minimum inhibitory concentration (MIC), Pa FADDI-PA022 (Pseudomonas aeruginosa): 4 µg/mL (≈ 3.5 µM); Minimum inhibitory concentration (MIC), Pa FADDI-PA025 (Pseudomonas aeruginosa): >32 µg/mL; Minimum inhibitory concentration (MIC), Ec FADDI-EC001 (Enterobacter cloacae): 0.25 µg/mL (≈ 0.219 µM); Minimum inhibitory concentration (MIC), Ec FADDI-EC003 (Enterobacter cloacae): 0.25 µg/mL (≈ 0.219 µM); Minimum inhibitory concentration (MIC), Ec FADDI-EC006 (Enterobacter cloacae): 0.5 µg/mL (≈ 0.437 µM); Minimum inhibitory concentration (MIC), Ab ATCC 17978 (Acinetobacter baumannii): 2 µg/mL (≈ 1.75 µM); Minimum inhibitory concentration (MIC), Ab ATCC 19606 (Acinetobacter baumannii): 2 µg/mL (≈ 1.75 µM); Minimum inhibitory concentration (MIC), Ab FADDI-AB034 (Acinetobacter baumannii): 1 µg/mL (≈ 0.875 µM) |
| CCCCCCCCC(=O)N[C@@H](CCN)C(=O)N[C@H](C(=O)N[C@@H](CN)C(=O)N[C@H]1CCNC(=O)[C@H]([C@@H](C)O)NC(=O)[C@H](CCN)NC(=O)[C@H](CCN)NC(=O)[C@H](C)NC(=O)[C@@H](CC(C)C)NC(=O)[C@H](CCN)NC1=O)[C@@H](C)O [Compound 132] (Nonanoyl-[Dab]T[Dap][Dab][Dab][dL]A[Dab][Dab]T; lactam 4-C) | −4.39 | −1.58 | −3.16 | 0.5 (≈ 0.449 µM) | 0.5 (≈ 0.449 µM) | 1 (≈ 0.898 µM) | 4 (≈ 3.59 µM) | 0.25 (≈ 0.225 µM) | <0.125 | <0.125 | 0.25 (≈ 0.225 µM) | 0.5 (≈ 0.449 µM) | 0.5 (≈ 0.449 µM) | 0.5 (≈ 0.449 µM) | 0.25 (≈ 0.225 µM) | – |
| CCCCCCCC(=O)N[C@@H](CCN)C(=O)N[C@H](C(=O)N[C@@H](CN)C(=O)N[C@H]1CCNC(=O)[C@H]([C@@H](C)O)NC(=O)[C@H](CCN)NC(=O)[C@H](CCN)NC(=O)[C@H]([C@@H](C)O)NC(=O)[C@@H](Cc2ccccc2)NC(=O)[C@H](CCN)NC1=O)[C@@H](C)O [Compound 129] (Octanoyl-[Dab]T[Dap][Dab][Dab][dF]T[Dab][Dab]T; lactam 4-C) | −3.45 | −1.42 | −3.64 | 0.5 (≈ 0.43 µM) | 0.5 (≈ 0.43 µM) | 1 (≈ 0.86 µM) | 2 (≈ 1.72 µM) | 0.5 (≈ 0.43 µM) | <0.125 | 0.5 (≈ 0.43 µM) | <0.125 | 0.5 (≈ 0.43 µM) | 0.25 (≈ 0.215 µM) | 0.5 (≈ 0.43 µM) | 0.25 (≈ 0.215 µM) | – |
| CC[C@@H]1NC(=O)[C@@H](CC(C)C)NC(=O)[C@H](CCN)NC(=O)[C@@H](NC(=O)[C@H](CN)NC(=O)[C@@H](NC(=O)[C@H](CCN)NC(=O)c2cccc(C(F)(F)F)c2)[C@@H](C)O)CCNC(=O)[C@H]([C@@H](C)O)NC(=O)[C@H](CCN)NC(=O)[C@H](CCN)NC1=O [Compound 106] ({Benzoyl(3-CF3)}-[Dab]T[Dap][Dab][Dab][dL][Abu][Dab][Dab]T; lactam 4-C) | −2.33 | – | −2.77 | 0.5 (≈ 0.431 µM) | 0.5 (≈ 0.431 µM) | 0.5 (≈ 0.431 µM) | 2 (≈ 1.73 µM) | 0.25 (≈ 0.216 µM) | 0.5 (≈ 0.431 µM) | 0.25 (≈ 0.216 µM) | 0.25 (≈ 0.216 µM) | 0.5 (≈ 0.431 µM) | 0.5 (≈ 0.431 µM) | 0.5 (≈ 0.431 µM) | 0.25 (≈ 0.216 µM) | – |

— patent publication USRE48335E1, “Polymyxin derivatives as antimicrobial compounds” (priority 2014, dated 2020)
